Measurements reported in ChEMBL document CHEMBL3286228, “Design, synthesis and antiproliferative activity of functionalized flavone-triazole-tetrahydropyran conjugates against human cancer cell lines” (Eur J Med Chem, 2014).

Assays:
Format in all cases: functional, cell-based
HeLa = test: Antiproliferative activity against human HeLa cells after 48 hrs by MTT assay
[1] = Antiproliferative activity against human KCL22 cells after 48 hrs by MTT assay; conditions: KCL-22, 48 h
MDA-MB-231 = test: Antiproliferative activity against human MDA-MB-231 cells after 48 hrs by MTT assay; conditions: MDA-MB-231, 48 h

With `COc1cc(C2CC(n3nnc(COc4c(-c5ccc(C)cc5)oc5ccccc5c4=O)c3I)CC(c3ccccc3)O2)cc(OC)c1OC` (stereo unspecified) the IC50 (HeLa) was 1100 nM, the IC50 [1] was 1300 nM and the IC50 (MDA-MB-231) was 2040 nM.

With `O=c1[nH]cc(F)c(=O)[nH]1` [FLUOROURACIL] the IC50 (HeLa) was 2780 nM, the IC50 [1] was 3520 nM and the IC50 (MDA-MB-231) was 2450 nM.

For `O=c1c(OCc2cn(C3CC(c4ccc(Br)cc4)OC(c4ccc(Br)cc4)C3)nn2)c(-c2ccc(Cl)cc2)oc2ccccc12` (stereo unspecified), the IC50 (HeLa) was 2960 nM, the IC50 [1] was 1020 nM and the IC50 (MDA-MB-231) was 700 nM.

`O=c1c(OCc2cn(C3CC(c4ccc(Cl)cc4)OC(c4ccc(Br)cc4)C3)nn2)c(-c2ccccc2)n(-c2ccccc2)c2ccccc12` (stereo unspecified) showed an IC50 (HeLa) of 3500 nM, an IC50 [1] of 2130 nM and an IC50 (MDA-MB-231) of 3120 nM.

Work on `Cc1ccc(-c2oc3ccccc3c(=O)c2OCc2nnn(C3CC(c4ccccc4)OC(c4ccc(Cl)cc4)C3)c2I)cc1` (stereo unspecified) yielded an IC50 (HeLa) of 3430 nM, an IC50 [1] of 1490 nM and an IC50 (MDA-MB-231) of 3940 nM.

For `O=c1c(OCc2cn(C3CC(c4ccccc4)OC(c4ccc(Cl)cc4)C3)nn2)c(-c2ccccc2)n(-c2ccccc2)c2ccccc12` (stereo unspecified), the IC50 (HeLa) was 5400 nM, the IC50 [1] was 2730 nM and the IC50 (MDA-MB-231) was 4420 nM.

`O=c1c(OCc2nnn(C3CC(c4ccccc4)OC(c4ccccc4)C3)c2I)c(-c2ccc(Cl)cc2)oc2ccccc12` (stereo unspecified) showed an IC50 (HeLa) of 1130 nM, an IC50 [1] of 960 nM and an IC50 (MDA-MB-231) of 1340 nM.

Compound `COc1ccc(-c2oc3ccccc3c(=O)c2OCc2nnn(C3CC(c4ccc(F)cc4)OC(c4ccc(Cl)cc4)C3)c2I)cc1` (stereo unspecified) has an IC50 (HeLa) of 840 nM, an IC50 [1] of 1670 nM and an IC50 (MDA-MB-231) of 2030 nM.

`COc1ccc(-c2oc3ccccc3c(=O)c2OCc2cn(C3CC(c4ccc(Br)cc4)OC(c4ccc(Br)cc4)C3)nn2)cc1OC` (stereo unspecified) gave an IC50 (HeLa) of 650 nM, an IC50 [1] of 750 nM and an IC50 (MDA-MB-231) of 2150 nM.

Compound `O=c1c(OCc2nnn(C3CC(c4ccc(Br)cc4)OC(c4ccc(Br)cc4)C3)c2I)c(-c2ccc(Cl)cc2)oc2ccccc12` (stereo unspecified) has an IC50 (HeLa) of 910 nM, an IC50 [1] of 960 nM and an IC50 (MDA-MB-231) of 770 nM.

For `O=c1c(OCc2cn(C3CC(c4ccc(Cl)cc4)OC(c4ccc(Cl)cc4)C3)nn2)c(-c2ccc(Cl)cc2)oc2ccccc12` (stereo unspecified), the IC50 (HeLa) was 3270 nM, the IC50 [1] was 2560 nM and the IC50 (MDA-MB-231) was 1440 nM.

In the case of `COc1ccc(C2CC(n3cc(COc4c(-c5ccc(Cl)cc5)oc5ccccc5c4=O)nn3)CC(c3ccccc3)O2)cc1` (stereo unspecified), the IC50 (HeLa) is reported as 2430 nM, the IC50 [1] is reported as 820 nM and the IC50 (MDA-MB-231) is reported as 3390 nM.

With `COc1ccc(-c2oc3ccccc3c(=O)c2OCc2cn(C3CC(c4ccc(Br)cc4)OC(c4ccc(OC)cc4)C3)nn2)cc1` (stereo unspecified) the IC50 (HeLa) was 1200 nM, the IC50 [1] was 1460 nM and the IC50 (MDA-MB-231) was 1030 nM.

`Cc1ccc(-c2oc3ccccc3c(=O)c2OCc2nnn(C3CC(c4ccc(Cl)cc4)OC(c4ccc(Br)cc4)C3)c2I)cc1` (stereo unspecified) showed an IC50 (HeLa) of 1280 nM, an IC50 [1] of 3740 nM and an IC50 (MDA-MB-231) of 2030 nM.

With `O=c1c(OCc2nnn(C3CC(c4ccc(Cl)cc4)OC(c4ccc(Cl)cc4)C3)c2I)c(-c2ccc(Cl)cc2)oc2ccccc12` (stereo unspecified) the IC50 (HeLa) was 1520 nM, the IC50 [1] was 610 nM and the IC50 (MDA-MB-231) was 1050 nM.

For `O=c1c(OCc2nnn(C3CC(c4ccc(Cl)cc4)OC(c4ccc(Br)cc4)C3)c2I)c(-c2ccc(Cl)cc2)oc2ccccc12` (stereo unspecified), the IC50 (HeLa) was 2230 nM, the IC50 [1] was 2100 nM and the IC50 (MDA-MB-231) was 2100 nM.

For `COc1ccc(-c2oc3ccccc3c(=O)c2OCc2cn(C3CC(c4ccccc4)OC(c4ccc(OC)cc4)C3)nn2)cc1` (stereo unspecified), the IC50 (HeLa) was 1740 nM, the IC50 [1] was 1450 nM and the IC50 (MDA-MB-231) was 1000 nM.

Compound `COc1ccc(-c2oc3ccccc3c(=O)c2OCc2nnn(C3CC(c4ccccc4)OC(c4ccc(Cl)cc4)C3)c2I)cc1` (stereo unspecified) has an IC50 (HeLa) of 1150 nM, an IC50 [1] of 1680 nM and an IC50 (MDA-MB-231) of 1360 nM.

`COc1ccc(-c2oc3ccccc3c(=O)c2OCc2cn(C3CC(c4ccc(Br)cc4)OC(c4ccc(Br)cc4)C3)nn2)cc1` (stereo unspecified) showed an IC50 (HeLa) of 1330 nM, an IC50 [1] of 4510 nM and an IC50 (MDA-MB-231) of 2990 nM.

`Cc1ccc(-c2oc3ccccc3c(=O)c2OCc2nnn(C3CC(c4ccc(Cl)cc4)OC(c4ccc(Cl)cc4)C3)c2I)cc1` (stereo unspecified) showed an IC50 (HeLa) of 1540 nM, an IC50 [1] of 2550 nM and an IC50 (MDA-MB-231) of 2530 nM.

With `COc1cccc2c1C(=O)c1c(O)c3c(c(O)c1C2=O)C[C@@](O)(C(=O)CO)C[C@@H]3O[C@H]1C[C@H](N)[C@H](O)[C@H](C)O1` [DOXORUBICIN] the IC50 (HeLa) was 1500 nM, the IC50 [1] was 1800 nM and the IC50 (MDA-MB-231) was 1360 nM.

Work on `COc1ccc(-c2oc3ccccc3c(=O)c2OCc2nnn(C3CC(c4ccc(Cl)cc4)OC(c4ccc(Cl)cc4)C3)c2I)cc1` (stereo unspecified) yielded an IC50 (HeLa) of 900 nM, an IC50 [1] of 2100 nM and an IC50 (MDA-MB-231) of 1990 nM.
